{
  "source": "the supplement of paper PMC10307832",
  "experiment_in_all_cases": "relative viability (nuclei count vs DMSO), 5 days (fraction); higher = more cells survive",
  "key": {"Adavosertib + Pemetrexed": {"compound": "C=CCn1c(=O)c2cnc(Nc3ccc(N4CCN(C)CC4)cc3)nc2n1-c1cccc(C(C)(C)O)n1 [Adavosertib] + Nc1nc2[nH]cc(CCc3ccc(C(=O)N[C@@H](CCC(=O)O)C(=O)O)cc3)c2c(=O)[nH]1 [Pemetrexed] (partner 0.2 µM)", "method_in_brief": "(§1)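 For relative viability, nuclei counts in treated wells were divided by those in vehicle wells. Lung cancer cell lines had been pin-tool dosed in 1536-well plates the day after seeding and cultured for 5 days, then fixed and stained in one step (final 0.05% Triton X-100, 1% formaldehyde, 1 ug/ml Hoechst) and imaged at 4×. Doses were one drug alone or a fixed anchor-drug dose plus five library-drug doses (not always all listed) in √10 steps, and values are duplicate-plate medians.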"}, "Adavosertib + AZD7762": {"compound": "C=CCn1c(=O)c2cnc(Nc3ccc(N4CCN(C)CC4)cc3)nc2n1-c1cccc(C(C)(C)O)n1 [Adavosertib] + NC(=O)Nc1cc(-c2cccc(F)c2)sc1C(=O)N[C@H]1CCCNC1 [AZD7762] (partner 0.2 µM)", "method_in_brief": "as §1"}, "Adavosertib + Lapatinib": {"compound": "C=CCn1c(=O)c2cnc(Nc3ccc(N4CCN(C)CC4)cc3)nc2n1-c1cccc(C(C)(C)O)n1 [Adavosertib] + CS(=O)(=O)CCNCc1ccc(-c2ccc3ncnc(Nc4ccc(OCc5cccc(F)c5)c(Cl)c4)c3c2)o1 [Lapatinib] (partner 2 µM)", "method_in_brief": "as §1"}, "Adavosertib + Decitabine": {"compound": "C=CCn1c(=O)c2cnc(Nc3ccc(N4CCN(C)CC4)cc3)nc2n1-c1cccc(C(C)(C)O)n1 [Adavosertib] + Nc1ncn([C@H]2C[C@H](O)[C@@H](CO)O2)c(=O)n1 [Decitabine] (partner 2 µM)", "method_in_brief": "as §1"}, "Adavosertib + OSI-027": {"compound": "C=CCn1c(=O)c2cnc(Nc3ccc(N4CCN(C)CC4)cc3)nc2n1-c1cccc(C(C)(C)O)n1 [Adavosertib] + COc1cccc2cc(-c3nc([C@H]4CC[C@H](C(=O)O)CC4)n4ncnc(N)c34)[nH]c12 [OSI-027] (partner 0.5 µM)", "method_in_brief": "as §1"}},
  "data": [
    {"cell line": "EMC-BAC-2", "values": [
      {"measurement": "relative viability", "setting": "Adavosertib + Pemetrexed; first compound 0.03162 µM", "result": 0.399},
      {"measurement": "relative viability", "setting": "Adavosertib + Pemetrexed; first compound 0.1 µM", "result": 0.357},
      {"measurement": "relative viability", "setting": "Adavosertib + Pemetrexed; first compound 0.3162 µM", "result": 0.334},
      {"measurement": "relative viability", "setting": "Adavosertib + AZD7762; first compound 0.03162 µM", "result": 1.15},
      {"measurement": "relative viability", "setting": "Adavosertib + AZD7762; first compound 0.1 µM", "result": 0.887},
      {"measurement": "relative viability", "setting": "Adavosertib + AZD7762; first compound 0.3162 µM", "result": 1.06},
      {"measurement": "relative viability", "setting": "Adavosertib + Lapatinib; first compound 0.01 µM", "result": 0.882},
      {"measurement": "relative viability", "setting": "Adavosertib + Lapatinib; first compound 0.03162 µM", "result": 0.869},
      {"measurement": "relative viability", "setting": "Adavosertib + Lapatinib; first compound 0.1 µM", "result": 0.927},
      {"measurement": "relative viability", "setting": "Adavosertib + Lapatinib; first compound 0.3162 µM", "result": 0.978},
      {"measurement": "relative viability", "setting": "Adavosertib + Decitabine; first compound 0.03162 µM", "result": 0.997},
      {"measurement": "relative viability", "setting": "Adavosertib + Decitabine; first compound 0.1 µM", "result": 1.08},
      {"measurement": "relative viability", "setting": "Adavosertib + Decitabine; first compound 0.3162 µM", "result": 1.04},
      {"measurement": "relative viability", "setting": "Adavosertib + OSI-027; first compound 0.01 µM", "result": 0.375},
      {"measurement": "relative viability", "setting": "Adavosertib + OSI-027; first compound 0.03162 µM", "result": 0.412},
      {"measurement": "relative viability", "setting": "Adavosertib + OSI-027; first compound 0.1 µM", "result": 0.396},
      {"measurement": "relative viability", "setting": "Adavosertib + OSI-027; first compound 0.3162 µM", "result": 0.307}
    ]}
  ]
}
